From ChEMBL document CHEMBL1201862, “PubChem BioAssay data set” (2004)
Activity calls are given as the source filed them.

Legend:
[1] = molecular target: Dual specificity tyrosine-phosphorylation-regulated kinase 1A (Homo sapiens, UniProt Q13627); assay type: functional;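 also: measured against DYRK1A as one member of a broad kinome profiling panel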
[2] = molecular target: Ribosomal protein S6 kinase alpha-3 (Homo sapiens, UniProt P51812); assay type: functional;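 also: measured within a kinome-wide profiling panel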
[3] = molecular target: T1, Serine/threonine-protein kinase TBK1 (Homo sapiens, UniProt Q9UHD2); experiment: Navigating the Kinome. Panel member name: TBK1; assay type: functional
T1 sequence (Q9UHD2 whole entry): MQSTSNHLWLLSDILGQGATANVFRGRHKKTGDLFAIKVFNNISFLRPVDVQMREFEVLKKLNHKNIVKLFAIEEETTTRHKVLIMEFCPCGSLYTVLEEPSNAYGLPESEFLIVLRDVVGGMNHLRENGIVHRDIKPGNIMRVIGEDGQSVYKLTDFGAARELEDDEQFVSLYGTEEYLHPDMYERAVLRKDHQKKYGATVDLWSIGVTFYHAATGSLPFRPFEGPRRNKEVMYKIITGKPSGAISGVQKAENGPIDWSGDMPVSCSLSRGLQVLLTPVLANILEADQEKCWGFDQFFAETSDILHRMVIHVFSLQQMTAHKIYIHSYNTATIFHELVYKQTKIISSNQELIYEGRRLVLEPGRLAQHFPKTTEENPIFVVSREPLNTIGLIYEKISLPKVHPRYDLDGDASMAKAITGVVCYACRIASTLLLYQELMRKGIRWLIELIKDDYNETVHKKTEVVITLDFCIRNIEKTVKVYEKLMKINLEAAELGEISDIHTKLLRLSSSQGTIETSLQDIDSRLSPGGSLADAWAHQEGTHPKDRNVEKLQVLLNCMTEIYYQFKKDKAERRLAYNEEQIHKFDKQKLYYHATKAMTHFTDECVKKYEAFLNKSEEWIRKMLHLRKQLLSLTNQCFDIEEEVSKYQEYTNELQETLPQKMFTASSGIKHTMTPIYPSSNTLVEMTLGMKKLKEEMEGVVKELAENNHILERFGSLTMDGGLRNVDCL

[4] = molecular target: 5'-AMP-activated protein kinase catalytic subunit alpha-1 (Homo sapiens, UniProt Q13131); assay type: functional
[5] = molecular target: Proto-oncogene tyrosine-protein kinase receptor Ret (Homo sapiens, UniProt P07949); assay type: functional;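 also: measured within a kinome-wide profiling panel, RET as the panel member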
[6] = molecular target: Tyrosyl-DNA phosphodiesterase 2 (Homo sapiens, UniProt O95551); experiment: human TDP2 enzyme inhibitors, dose response, biochemical, epi absorbance, IC50 (AID 743297)
[7] = molecular target: T2, Histone-lysine N-methyltransferase NSD2 (Homo sapiens, UniProt O96028); assay type: biochemical
T2 sequence (O96028 whole entry): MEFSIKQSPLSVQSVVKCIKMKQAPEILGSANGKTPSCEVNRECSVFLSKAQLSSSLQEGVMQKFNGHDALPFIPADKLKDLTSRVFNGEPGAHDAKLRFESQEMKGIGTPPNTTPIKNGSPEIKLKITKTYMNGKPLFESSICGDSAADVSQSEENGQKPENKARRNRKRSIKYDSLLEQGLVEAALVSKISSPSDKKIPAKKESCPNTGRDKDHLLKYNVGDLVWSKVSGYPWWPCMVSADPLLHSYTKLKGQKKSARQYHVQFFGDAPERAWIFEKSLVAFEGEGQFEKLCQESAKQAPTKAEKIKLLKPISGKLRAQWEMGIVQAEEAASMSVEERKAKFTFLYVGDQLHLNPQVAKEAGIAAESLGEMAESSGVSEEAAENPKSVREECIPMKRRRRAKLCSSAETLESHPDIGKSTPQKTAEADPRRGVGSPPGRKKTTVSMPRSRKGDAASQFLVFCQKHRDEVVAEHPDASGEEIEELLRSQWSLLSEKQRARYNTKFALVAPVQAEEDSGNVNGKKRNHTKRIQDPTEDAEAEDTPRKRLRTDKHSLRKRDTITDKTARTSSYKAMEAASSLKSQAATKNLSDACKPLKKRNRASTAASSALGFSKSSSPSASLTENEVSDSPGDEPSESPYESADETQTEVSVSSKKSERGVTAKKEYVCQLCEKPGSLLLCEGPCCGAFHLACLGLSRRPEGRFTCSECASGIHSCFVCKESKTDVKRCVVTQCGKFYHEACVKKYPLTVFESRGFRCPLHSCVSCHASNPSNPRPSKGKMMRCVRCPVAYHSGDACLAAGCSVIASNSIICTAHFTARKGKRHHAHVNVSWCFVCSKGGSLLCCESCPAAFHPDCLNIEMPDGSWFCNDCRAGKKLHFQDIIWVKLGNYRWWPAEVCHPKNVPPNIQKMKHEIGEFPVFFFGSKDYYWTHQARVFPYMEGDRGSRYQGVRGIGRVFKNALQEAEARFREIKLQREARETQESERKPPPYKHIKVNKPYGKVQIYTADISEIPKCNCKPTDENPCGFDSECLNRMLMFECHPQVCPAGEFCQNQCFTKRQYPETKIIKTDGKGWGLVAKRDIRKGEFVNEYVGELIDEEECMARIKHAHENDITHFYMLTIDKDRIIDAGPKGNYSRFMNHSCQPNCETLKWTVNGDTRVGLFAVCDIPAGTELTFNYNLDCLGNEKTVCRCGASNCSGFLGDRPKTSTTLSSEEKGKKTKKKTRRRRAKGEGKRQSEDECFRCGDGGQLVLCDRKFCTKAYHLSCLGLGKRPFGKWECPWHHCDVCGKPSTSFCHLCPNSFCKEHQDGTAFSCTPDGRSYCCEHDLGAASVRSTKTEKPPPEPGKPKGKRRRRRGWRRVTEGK

LIM domain kinase 1 = LIM domain kinase 1 (Homo sapiens, UniProt P53667); experiment: Navigating the Kinome. Panel member name: LIMK1; assay type: functional
[8] = molecular target: Platelet-derived growth factor receptor beta (Homo sapiens, UniProt P09619); assay type: functional;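 also: value comes from a kinome panel, with PDGFRB tested as one panel member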
[9] = molecular target: G protein-coupled receptor kinase 5 (Homo sapiens, UniProt P34947); experiment: Navigating the Kinome. Panel member name: GPRK5; assay type: functional
[10] = cytotoxicity toward DRD oncogenic fibroblasts, dose response, cell-based, non-viral oncogenic, luminescence (AID 1934); assay type: functional; settings: Homo sapiens
[11] = M. tuberculosis H37Rv growth inhibitors, H37Rv strain (AID 1626); assay type: functional
Vero = Vero cell cytotoxicity, cytotoxicity control for flavivirus capping enzyme inhibitors (AID 588742); assay type: functional; settings: Chlorocebus sabaeus
Nonstructural protein 1 = Nonstructural protein 1 (Influenza A virus, UniProt Q194T2); assay type: functional, Influenza A virus (A/California/07/2009(H1N1))
BJ = experiment: cytotoxicity toward BJ-TERT-LT-ST fibroblasts, dose response, cell-based, RAS-independent, luminescence (AID 1935); assay type: functional; settings: Homo sapiens;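 also: BJ fibroblasts immortalized with TERT plus LT and ST oncogenes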
INS1 = experiment: beta cell apoptosis inhibitors, cytokine rescue, dose response, luminescence, retest (AID 449756); assay type: functional, cell-based; settings: Rattus norvegicus;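 also: cell death triggered by IL-1 beta plus TNF-alpha plus IFN-gamma mixture; protective hits raise ATP signal compared with cytokine alone wells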
Genome polyprotein = Genome polyprotein (dengue virus type 2, UniProt P29990); experiment: Dengue-2 NS5 methyltransferase inhibitors, primary screen, biochemical, confirmation dose response (AID 588689); assay type: functional

5'-AMP-activated protein kinase catalytic subunit alpha-1, sequence (Q13131 whole entry): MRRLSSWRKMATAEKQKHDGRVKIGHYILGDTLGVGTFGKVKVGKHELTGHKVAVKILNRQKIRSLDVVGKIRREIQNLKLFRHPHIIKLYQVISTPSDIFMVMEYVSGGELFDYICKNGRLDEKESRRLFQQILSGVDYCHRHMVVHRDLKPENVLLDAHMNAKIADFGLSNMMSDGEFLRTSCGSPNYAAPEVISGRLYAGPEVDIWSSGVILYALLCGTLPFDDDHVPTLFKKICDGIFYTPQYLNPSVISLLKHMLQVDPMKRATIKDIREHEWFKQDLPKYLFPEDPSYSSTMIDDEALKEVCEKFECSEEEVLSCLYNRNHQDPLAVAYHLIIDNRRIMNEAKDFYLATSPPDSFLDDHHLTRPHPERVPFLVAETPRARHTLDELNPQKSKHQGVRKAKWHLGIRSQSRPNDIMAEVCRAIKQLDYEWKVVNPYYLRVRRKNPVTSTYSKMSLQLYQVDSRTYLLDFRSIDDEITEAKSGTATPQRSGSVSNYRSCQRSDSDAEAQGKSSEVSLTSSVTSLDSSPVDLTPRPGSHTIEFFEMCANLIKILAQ
Nonstructural protein 1, sequence (Q194T2 whole entry): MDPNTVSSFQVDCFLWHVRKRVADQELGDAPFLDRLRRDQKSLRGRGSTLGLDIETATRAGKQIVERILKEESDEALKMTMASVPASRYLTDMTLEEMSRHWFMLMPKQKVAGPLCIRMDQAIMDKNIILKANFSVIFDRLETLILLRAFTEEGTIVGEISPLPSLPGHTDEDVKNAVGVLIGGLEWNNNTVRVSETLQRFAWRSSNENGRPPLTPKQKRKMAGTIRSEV
Ribosomal protein S6 kinase alpha-3, sequence (P51812 whole entry): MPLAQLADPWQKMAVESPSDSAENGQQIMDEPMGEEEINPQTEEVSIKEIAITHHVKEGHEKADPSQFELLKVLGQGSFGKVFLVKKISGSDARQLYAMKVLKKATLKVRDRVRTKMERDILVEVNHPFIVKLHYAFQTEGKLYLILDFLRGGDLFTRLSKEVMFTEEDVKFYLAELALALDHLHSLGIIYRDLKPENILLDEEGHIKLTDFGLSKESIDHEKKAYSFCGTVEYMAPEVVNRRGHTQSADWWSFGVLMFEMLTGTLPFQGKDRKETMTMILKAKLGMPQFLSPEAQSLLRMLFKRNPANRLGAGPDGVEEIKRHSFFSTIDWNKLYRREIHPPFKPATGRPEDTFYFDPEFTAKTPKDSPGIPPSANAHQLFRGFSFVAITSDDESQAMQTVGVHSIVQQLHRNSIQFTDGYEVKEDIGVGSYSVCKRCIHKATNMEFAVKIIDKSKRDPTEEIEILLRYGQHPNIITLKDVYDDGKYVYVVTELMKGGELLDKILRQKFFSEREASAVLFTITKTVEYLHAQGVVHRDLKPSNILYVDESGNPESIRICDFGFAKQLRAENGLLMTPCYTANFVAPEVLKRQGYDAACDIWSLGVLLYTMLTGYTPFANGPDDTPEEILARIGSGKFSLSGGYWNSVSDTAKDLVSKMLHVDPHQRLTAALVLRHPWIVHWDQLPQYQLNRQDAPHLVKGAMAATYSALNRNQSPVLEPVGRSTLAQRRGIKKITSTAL
G protein-coupled receptor kinase 5, sequence (P34947 whole entry): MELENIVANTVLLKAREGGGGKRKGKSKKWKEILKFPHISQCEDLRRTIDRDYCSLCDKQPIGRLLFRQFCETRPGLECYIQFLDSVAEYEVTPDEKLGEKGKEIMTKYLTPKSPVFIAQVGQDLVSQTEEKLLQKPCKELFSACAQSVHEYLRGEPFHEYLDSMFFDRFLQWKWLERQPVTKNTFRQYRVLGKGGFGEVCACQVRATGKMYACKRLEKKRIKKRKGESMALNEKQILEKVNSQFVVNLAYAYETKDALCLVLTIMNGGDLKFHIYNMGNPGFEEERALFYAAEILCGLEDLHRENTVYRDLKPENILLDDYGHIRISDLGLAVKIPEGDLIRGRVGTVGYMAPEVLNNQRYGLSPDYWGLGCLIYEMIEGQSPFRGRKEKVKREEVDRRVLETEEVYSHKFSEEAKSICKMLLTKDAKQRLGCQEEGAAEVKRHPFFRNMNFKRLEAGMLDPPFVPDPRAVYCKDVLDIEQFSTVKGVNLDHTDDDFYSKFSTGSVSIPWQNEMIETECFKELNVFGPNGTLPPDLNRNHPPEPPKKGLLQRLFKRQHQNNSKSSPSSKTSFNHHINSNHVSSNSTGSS
Platelet-derived growth factor receptor beta, sequence (P09619 whole entry): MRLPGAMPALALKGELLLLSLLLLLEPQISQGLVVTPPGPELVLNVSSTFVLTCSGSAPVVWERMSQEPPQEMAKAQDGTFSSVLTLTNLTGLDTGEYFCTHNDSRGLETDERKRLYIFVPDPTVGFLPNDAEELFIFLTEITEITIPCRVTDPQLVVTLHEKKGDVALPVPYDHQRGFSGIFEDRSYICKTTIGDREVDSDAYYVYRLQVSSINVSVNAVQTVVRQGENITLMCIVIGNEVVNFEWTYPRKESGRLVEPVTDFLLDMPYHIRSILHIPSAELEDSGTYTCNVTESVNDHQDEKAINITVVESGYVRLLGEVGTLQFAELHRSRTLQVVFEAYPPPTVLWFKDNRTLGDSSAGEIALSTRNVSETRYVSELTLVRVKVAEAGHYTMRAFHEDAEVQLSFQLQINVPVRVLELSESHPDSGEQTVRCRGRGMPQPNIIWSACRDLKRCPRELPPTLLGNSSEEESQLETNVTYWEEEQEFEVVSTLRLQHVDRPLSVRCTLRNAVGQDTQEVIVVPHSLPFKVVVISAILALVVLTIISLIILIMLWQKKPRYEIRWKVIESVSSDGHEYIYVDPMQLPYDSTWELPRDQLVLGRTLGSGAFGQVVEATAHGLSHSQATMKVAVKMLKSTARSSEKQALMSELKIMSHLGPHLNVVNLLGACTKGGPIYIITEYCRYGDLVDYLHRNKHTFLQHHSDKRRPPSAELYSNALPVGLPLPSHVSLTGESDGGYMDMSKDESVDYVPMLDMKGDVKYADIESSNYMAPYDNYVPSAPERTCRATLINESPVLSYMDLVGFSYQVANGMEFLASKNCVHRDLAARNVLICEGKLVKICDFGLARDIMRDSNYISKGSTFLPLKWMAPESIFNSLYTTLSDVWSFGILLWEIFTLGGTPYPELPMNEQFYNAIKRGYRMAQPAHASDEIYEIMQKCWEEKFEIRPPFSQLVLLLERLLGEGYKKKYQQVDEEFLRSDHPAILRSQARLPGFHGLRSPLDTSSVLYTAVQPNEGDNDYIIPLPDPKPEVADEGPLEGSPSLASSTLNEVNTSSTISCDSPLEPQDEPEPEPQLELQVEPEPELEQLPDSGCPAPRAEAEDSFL
Proto-oncogene tyrosine-protein kinase receptor Ret, sequence (P07949 whole entry): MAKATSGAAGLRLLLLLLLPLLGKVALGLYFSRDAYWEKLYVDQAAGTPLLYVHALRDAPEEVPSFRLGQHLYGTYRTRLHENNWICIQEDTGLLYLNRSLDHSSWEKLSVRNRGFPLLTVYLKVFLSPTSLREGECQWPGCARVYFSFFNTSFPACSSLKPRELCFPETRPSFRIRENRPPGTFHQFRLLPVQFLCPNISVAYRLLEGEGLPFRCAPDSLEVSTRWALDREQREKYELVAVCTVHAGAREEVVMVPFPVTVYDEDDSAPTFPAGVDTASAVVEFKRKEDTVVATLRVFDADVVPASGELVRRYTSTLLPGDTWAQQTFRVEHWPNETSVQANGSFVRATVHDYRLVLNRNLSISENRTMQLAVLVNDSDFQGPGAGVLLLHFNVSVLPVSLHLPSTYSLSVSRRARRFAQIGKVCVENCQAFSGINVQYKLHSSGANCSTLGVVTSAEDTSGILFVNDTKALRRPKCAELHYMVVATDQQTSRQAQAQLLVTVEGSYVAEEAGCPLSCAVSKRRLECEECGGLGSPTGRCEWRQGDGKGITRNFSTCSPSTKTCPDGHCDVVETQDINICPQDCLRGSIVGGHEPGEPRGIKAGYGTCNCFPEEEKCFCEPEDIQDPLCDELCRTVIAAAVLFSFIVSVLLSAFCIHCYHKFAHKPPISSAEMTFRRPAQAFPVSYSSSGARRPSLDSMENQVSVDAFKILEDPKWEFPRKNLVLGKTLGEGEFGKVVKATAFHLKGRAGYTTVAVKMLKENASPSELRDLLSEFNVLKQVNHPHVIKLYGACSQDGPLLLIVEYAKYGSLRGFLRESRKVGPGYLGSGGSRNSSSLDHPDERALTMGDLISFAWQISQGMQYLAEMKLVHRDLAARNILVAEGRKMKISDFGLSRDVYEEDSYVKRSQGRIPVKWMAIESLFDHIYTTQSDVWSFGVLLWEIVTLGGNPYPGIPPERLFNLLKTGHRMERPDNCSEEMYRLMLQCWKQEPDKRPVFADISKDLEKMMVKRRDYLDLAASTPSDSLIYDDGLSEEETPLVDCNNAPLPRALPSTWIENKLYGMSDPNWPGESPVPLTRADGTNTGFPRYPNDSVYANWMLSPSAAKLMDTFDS
Tyrosyl-DNA phosphodiesterase 2, sequence (O95551 whole entry): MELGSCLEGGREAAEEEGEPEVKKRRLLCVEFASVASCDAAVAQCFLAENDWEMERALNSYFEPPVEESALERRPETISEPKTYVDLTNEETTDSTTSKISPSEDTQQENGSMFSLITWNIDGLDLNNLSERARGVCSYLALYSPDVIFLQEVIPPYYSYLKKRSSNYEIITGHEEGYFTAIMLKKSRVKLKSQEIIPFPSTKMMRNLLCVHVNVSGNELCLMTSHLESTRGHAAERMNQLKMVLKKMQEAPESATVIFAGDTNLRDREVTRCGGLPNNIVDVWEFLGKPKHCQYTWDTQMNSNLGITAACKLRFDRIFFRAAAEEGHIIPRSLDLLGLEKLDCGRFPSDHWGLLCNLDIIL

O=c1[nH]c2cc(Br)cnc2[nH]1
Ki [1]: 3.98 µM (active)
Ki [2]: 31.6 µM (active)
Ki [3]: 79.4 µM (active)
Ki [4]: 25.1 µM (active)
Ki [5]: 31.6 µM (active)

O=C(Cc1ccccc1)NC1(O)C(=O)c2ccccc2C1=O
IC50 [6]: 13.2 µM (inactive)
AC50 [7]: 7.11 µM (active)

CCC1CC(NS(=O)(=O)C2CC2)CC1c1ncc2cnc3[nH]ccc3n12 (centres undefined)
Ki [1]: > 2 µM (inactive)
Ki [3]: > 3.16 µM (inactive)
Ki [4]: 2 µM (active)

O=C(Nc1cccc(C(F)(F)F)n1)Nc1ccnc2cc(OC(F)F)ccc12
Ki [1]: > 2 µM (inactive)
Ki (LIM domain kinase 1): > 3.16 µM (inactive)
Ki [2]: > 3.98 µM (inactive)
Ki [3]: > 3.16 µM (inactive)
Ki [8]: > 2 µM (inactive)
Ki [4]: > 3.16 µM (inactive)
Ki [9]: > 3.98 µM (inactive)
Ki [5]: > 3.16 µM (inactive)

O=C(Nc1cccc(C(F)(F)F)n1)Nc1ccnc2cc(Cl)ccc12
Ki [1]: > 2 µM (inactive)
Ki [3]: > 3.16 µM (inactive)
Ki [8]: > 2 µM (inactive)
Ki [4]: > 3.16 µM (inactive)
Ki [9]: > 3.98 µM (inactive)

COC(=O)c1nc(-c2ccc3c(n2)C(=O)C(=N)C(OC)=C3O)c(N)c(-c2ccc(OC)c(OC)c2O)c1C
EC50 [10]: 13.9 µM (active)
IC50 [11]: > 100 µM (active)
CC50 (Vero): 0.18 µM (active)
IC50 (Nonstructural protein 1): > 100 µM (active)
EC50 (BJ): 10.3 µM (active)
AC50 (INS1): 1.56 µM (active)
AC50 [7]: > 20 µM (inactive)

Cc1cc(C)c(S(=O)(=O)/N=C2\C=C(Nc3ccc(C(=O)O)cc3)C(=O)c3ccccc32)c(C)c1
CC50 (Vero): 9.71 µM (active)
IC50 (Nonstructural protein 1): 20.8 µM (active)
AC50 (INS1): 2.51 µM (active)
IC50 (Genome polyprotein): 21.2 µM (active)
